These results are taken from BindingDB's records for patent US20240208953 (Novartis, 2024).

The data set has as its target Potassium voltage-gated channel subfamily H member 2 (Homo sapiens, UniProt Q12809). The experiment in a line: hERG Qpatch Assay. The procedure: hERG currents were recorded using the Qpatch automated patch clamp systems (Sophion Bioscience Inc., North Brunswick, NJ) in the whole (single) cell configuration. hERG expressing CHO-K1 cells were harvested with Detachin (Genlantis) and stored in the modified serum-free SFM-2 media (Life Technologies) at room temperature. The extracellular solution contained (in mM) NaCl (145), KCl (4), MgCl2 (1), CaCl2 (2), and HEPES (10), pH 7.4, with NaOH. The intracellular solution contained KCl (135), MgCl2 (1.75), CaCl2 (5.4), EGTA (10), K2-ATP (4), and HEPES (10), pH 7.2, with KOH. After whole cell configuration was achieved, the cell was held at +-90 mV, and a 0.1 s pulse to +-50 mV was delivered to measure the leaking current, which was subtracted from the tail current online. Then the cell was depolarized to +20 mV for 4 s (prepulse), followed by a 4 s test pulse to +-50 mV to reveal the hERG tail current. To monitor changes in the current amplitude, this voltage protocol was repeatedly applied every 20 s. Test compounds were first diluted in DMSO for six dose-response experiments and then dissolved in the extracellular solution using Freedom EVO liquid handling robotic system (Tecan, M nnedorf, Switzerland). The final DMSO concentration in samples was 0.3% v/v. Amitriptyline (Sigma) was tested as a positive control.

The IC50 is the midpoint of a concentration-inhibition curve. Read a high IC50 as a need for much substance.

Sequence of Potassium voltage-gated channel subfamily H member 2 (Q12809 whole entry): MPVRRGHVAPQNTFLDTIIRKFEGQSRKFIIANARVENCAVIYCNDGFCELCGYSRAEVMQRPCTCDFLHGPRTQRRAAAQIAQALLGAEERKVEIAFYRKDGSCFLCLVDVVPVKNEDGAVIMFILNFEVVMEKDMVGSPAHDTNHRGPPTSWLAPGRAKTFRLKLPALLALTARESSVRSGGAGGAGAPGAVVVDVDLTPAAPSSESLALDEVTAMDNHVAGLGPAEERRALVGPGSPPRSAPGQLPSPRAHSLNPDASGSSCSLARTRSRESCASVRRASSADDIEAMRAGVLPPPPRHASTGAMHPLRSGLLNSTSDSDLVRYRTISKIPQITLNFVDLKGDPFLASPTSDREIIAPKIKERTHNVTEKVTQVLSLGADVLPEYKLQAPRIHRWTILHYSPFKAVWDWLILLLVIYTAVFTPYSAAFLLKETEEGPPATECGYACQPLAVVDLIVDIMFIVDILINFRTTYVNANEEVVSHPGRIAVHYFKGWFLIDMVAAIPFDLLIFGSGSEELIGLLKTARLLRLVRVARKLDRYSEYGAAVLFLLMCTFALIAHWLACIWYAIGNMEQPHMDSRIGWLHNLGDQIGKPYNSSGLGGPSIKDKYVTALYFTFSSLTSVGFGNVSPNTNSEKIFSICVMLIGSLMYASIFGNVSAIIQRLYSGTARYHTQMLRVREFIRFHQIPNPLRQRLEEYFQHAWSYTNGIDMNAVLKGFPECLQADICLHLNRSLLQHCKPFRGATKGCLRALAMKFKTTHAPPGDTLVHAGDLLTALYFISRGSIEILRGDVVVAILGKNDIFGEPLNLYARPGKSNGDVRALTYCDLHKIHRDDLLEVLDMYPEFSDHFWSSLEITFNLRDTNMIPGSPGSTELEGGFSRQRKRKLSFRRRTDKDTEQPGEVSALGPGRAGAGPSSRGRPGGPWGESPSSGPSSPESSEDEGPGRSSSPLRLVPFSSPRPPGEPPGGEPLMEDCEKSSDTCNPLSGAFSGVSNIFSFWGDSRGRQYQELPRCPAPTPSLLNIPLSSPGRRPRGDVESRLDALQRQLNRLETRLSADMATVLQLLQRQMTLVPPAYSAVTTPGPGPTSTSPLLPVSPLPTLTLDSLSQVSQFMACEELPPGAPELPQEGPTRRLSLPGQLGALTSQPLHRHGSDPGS

In turn, `O=C1CCc2cc([C@H](O)CN3C[C@H]4C[C@H](Oc5ccccc5F)C[C@@]4(O)C3)cc(F)c2N1` [US20240208953, Example 29B] came in with a half-maximal inhibitory concentration (IC50) of 12.5 µM.

In the case of `O=C1Nc2c(F)cc([C@@H](O)CN3C[C@H]4C[C@H](Oc5ccccc5)C[C@@]4(O)C3)cc2CO1` [US20240208953, Example 28A], the IC50 was determined as 2.4 µM.
